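Protocol summary: plate cells (96-well), add compound at 5 concentrations, incubate 48 h, interpolate endpoints linearly. The concentration for full growth arrest is given as TGI.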
Columns and labels:
Assay in all cases: NCI tumour cell line growth inhibition, 48 h
XF 498 CNS = system: XF 498 CNS
NCI-H226 lung = system: NCI-H226 lung
SK-MEL-5 melanoma = system: SK-MEL-5 melanoma
RXF 393 renal = system: RXF 393 renal
HCC-2998 colon = system: HCC-2998 colon
M19-MEL melanoma = system: M19-MEL melanoma
SNB-19 CNS = system: SNB-19 CNS
OVCAR-5 ovarian = system: OVCAR-5 ovarian
CAKI-1 renal = system: CAKI-1 renal
P388 leukemia = system: P388 leukemia
A549 NSCLC = system: A549 NSCLC
HCT-116 colon = system: HCT-116 colon
OVCAR-3 ovarian = system: OVCAR-3 ovarian
SK-OV-3 ovarian = system: SK-OV-3 ovarian
NCI-H522 lung = system: NCI-H522 lung
KM20L2 colon = system: KM20L2 colon
SF-295 CNS = system: SF-295 CNS
UACC-257 melanoma = system: UACC-257 melanoma
SN12C renal = system: SN12C renal
UACC-62 melanoma = system: UACC-62 melanoma
HOP-62 NSCLC = system: HOP-62 NSCLC
NCI-H460 lung = system: NCI-H460 lung
CCRF-CEM leukemia = system: CCRF-CEM leukemia
HOP-18 NSCLC = system: HOP-18 NSCLC
SN12K1 renal = system: SN12K1 renal
MOLT-4 leukemia = system: MOLT-4 leukemia
HOP-92 NSCLC = system: HOP-92 NSCLC
EKVX NSCLC = system: EKVX NSCLC
SF-268 CNS = system: SF-268 CNS
DLD-1 colon = system: DLD-1 colon
HT29 colon = system: HT29 colon
RPMI-8226 leukemia = system: RPMI-8226 leukemia
OVCAR-8 ovarian = system: OVCAR-8 ovarian
SF-539 CNS = system: SF-539 CNS
HCT-15 colon = system: HCT-15 colon
IGROV1 ovarian = system: IGROV1 ovarian
HL-60(TB) leukemia = system: HL-60(TB) leukemia
SNB-75 CNS = system: SNB-75 CNS
MALME-3M melanoma = system: MALME-3M melanoma
A498 renal = system: A498 renal
DMS 114 small cell lung = system: DMS 114 small cell lung
NCI/ADR-RES ovarian = system: NCI/ADR-RES ovarian
P388/ADR leukemia = system: P388/ADR leukemia
KM12 colon = system: KM12 colon
U251 CNS = system: U251 CNS
DMS 273 small cell lung = system: DMS 273 small cell lung
NCI-H23 lung = system: NCI-H23 lung
MCF7 breast = system: MCF7 breast
K-562 leukemia = system: K-562 leukemia
SK-MEL-2 melanoma = system: SK-MEL-2 melanoma
SW-620 colon = system: SW-620 colon
SK-MEL-28 melanoma = system: SK-MEL-28 melanoma
UO-31 renal = system: UO-31 renal
OVCAR-4 ovarian = system: OVCAR-4 ovarian
COLO 205 colon = system: COLO 205 colon
SNB-78 CNS = system: SNB-78 CNS
LOX IMVI melanoma = system: LOX IMVI melanoma

Measured: TGI

O=C(O)CCC(NC(=O)c1ccc(Nc2nc3ccc(C(F)(F)F)cc3nc2-c2ccccc2)cc1)C(=O)O (configuration not stated)
> 100 µM: all assays above
